Earlier results, collected in US20060122261A1, “[METHOD OF PREPARING LABDANE DITERPENE COMPOSITION, PREFERABLY ISOFORSKOLIN AND DEACETYLFORSKOLIN FROM FORSKOLIN EXTRACT AND THEIR USE FOR PROMOTING LEAN BODY MASS AND OTHER APPLICATIONS]” (priority 2003, published 2006).

Columns and labels:
[1] = Rupp, de Souza, Dohadwalla 1985
[2] = system: adenylate cyclase; conditions: Rupp, de Souza, Dohadwalla 1985

SMILES	Effectiveness as hypotensive, anti-hypertensive, positive inotropic relative to Forskolin [1]	Effectiveness as adenylate cyclase activator relative to Forskolin [2]
C=C[C@@]1(C)CC(=O)[C@@]2(O)[C@](C)(O1)[C@@H](O)[C@@H](OC(C)=O)C1C(C)(C)CC[C@H](O)[C@@]12C (stereo partly shown) [6-acetyl-7-deacetylforskolin]	equally effective as Forskolin	equally effective as Forskolin
C=C[C@@]1(C)CC(=O)[C@]2(O)[C@@]3(C)[C@@H](O)CCC(C)(C)[C@@H]3[C@H](O)[C@H](O)[C@@]2(C)O1 [7-deacetylforskolin]	equally effective as Forskolin	equally effective as Forskolin
